Test results from patent publication US6534447B1, “Herbicidal pyridine compounds” (BASF Aktiengesellschaft, priority 1999, dated 2003).

Assays:
Type in all cases: in vivo
[1] = system: Matricaria inodora (MATIN, mayweed); assay: Post-emergence herbicidal evaluation; settings: 3 weeks after treatment
Method: (§1) These acetone solutions are diluted with water and the resulting formulations applied at dosage levels equivalent of about 0.025 to 0.4 kg per hectare of test compound per pot. After spraying the plants are placed on greenhouse benches and are cared for in the usual manner, commensurate with conventional greenhouse practices. From 3 weeks after treatment, the seedling plants are examined and rated according to the rating system provided above. A rating 0 indicates growth as untreated control, a rating 9 indicates death.

[2] = system: Abutilon theophrasti (ABUTH, velvetleaf); assay: Post-emergence herbicidal evaluation; settings: 3 weeks after treatment
Method: as §1

[3] = system: Dolium multiflorum (LOLMU, ryegrass); assay: Post-emergence herbicidal evaluation; settings: rate 0.100 kg/ha, 3 weeks after treatment
Method: as §1

[4] = system: Alopecurus myosuroides (ALOMY, black grass); assay: Post-emergence herbicidal evaluation; settings: 3 weeks after treatment
Method: as §1

[5] = system: Galium aparine (GALAP, cleaver); assay: Post-emergence herbicidal evaluation; settings: 3 weeks after treatment
Method: as §1

[6] = system: Ipomoea hederacea (IPOHE, morning glory); assay: Post-emergence herbicidal evaluation; settings: 3 weeks after treatment
Method: as §1

[7] = system: Setaria viridis (SETVI, green foxtail); assay: Post-emergence herbicidal evaluation; settings: 3 weeks after treatment
Method: as §1

[8] = system: Echinochloa grus galli (ECHCG, barnyard grass); assay: Post-emergence herbicidal evaluation; settings: 3 weeks after treatment
Method: as §1

[9] = system: Matricaria inodora (MATIN, mayweed); assay: Pre-emergence herbicidal evaluation; settings: 3 weeks after treatment
Excerpt: (§2) The pre-emergence herbicidal activity of the compounds of the present invention is exemplified by the following test in which the seeds of a variety of monocotyledonous and dicotyledonous plants are seperately mixed with potting soil and planted on top of approximately one inch of soil in separate post. After planting, the pots are sprayed with the selected aqueous acetone solution. containing test compound in sufficient quantity to provide the equivalent of about 0.025 to 0.4 kg per hectare of test compound per pot. The treated pots are then placed on greenhouse benches, watered and cared for in accordance with conventional greenhouse procedures. From 3 weeks after treatment, the tests are terminated and each pot is examined and rated according to the rating system set forth below. [table] [table]

[10] = system: Abutilon theophrasti (ABUTH, velvetleaf); assay: Pre-emergence herbicidal evaluation; settings: 3 weeks after treatment
Excerpt: as §2

[11] = system: Alopecurus myosuroides (ALOMY, black grass); assay: Pre-emergence herbicidal evaluation; settings: 3 weeks after treatment
Excerpt: as §2

[12] = system: Stellaria media (STEME, chickweed); assay: Pre-emergence herbicidal evaluation; settings: 3 weeks after treatment
Excerpt: as §2

[13] = system: Galium aparine (GALAP, cleaver); assay: Pre-emergence herbicidal evaluation; settings: 3 weeks after treatment
Excerpt: as §2

[14] = system: Ipomoea hederacea (IPOHE, morning glory); assay: Pre-emergence herbicidal evaluation; settings: 3 weeks after treatment
Excerpt: as §2

[15] = system: Setaria viridis (SETVI, green foxtail); assay: Pre-emergence herbicidal evaluation; settings: 3 weeks after treatment
Excerpt: as §2

[16] = system: Echinochloa grus galli (ECHCG, barnyard grass); assay: Pre-emergence herbicidal evaluation; settings: 3 weeks after treatment
Excerpt: as §2

eight weed species = assay: Pre-emergence herbicidal evaluation, overall weed control
Excerpt: as §2, with “below.” for “below. [table] [table]”
Thus, there is evidence for the good potential of the compounds of the invention for excellent cross spectrum control of both grasses and broadleaf weeds in key crops.

Zea mays (ZEAMX, maize) = assay: Pre-emergence herbicidal evaluation (crop); settings: 3 weeks after treatment
Excerpt: as §2

[17] = system: Triticum aestivum (TRZAW, winter wheat); assay: Pre-emergence herbicidal evaluation (crop); settings: 3 weeks after treatment
Excerpt: as §2

[18] = system: Glycine max (GLXMA, soyabeans); assay: Pre-emergence herbicidal evaluation (crop); settings: 3 weeks after treatment
Excerpt: as §2

[19] = system: Stellaria media (STEME, chickweed); assay: Post-emergence herbicidal evaluation; settings: 3 weeks after treatment
Method: as §1

[20] = crop selective dose of 0.1 kg/ha

Cc1cc(OCCSC(F)(F)F)nc(Oc2cc(C(F)(F)F)nn2C)c1 [Example 1, 2-(1-methyl-3-trifluoromethylpyrazol-5-yloxy)-6-(2-trifluoromethylthioethoxy)-4-methylpyridine]
MATIN rating ([1]; rate 0.025 kg/ha): 5 (5 - Definite injury)
MATIN rating ([1]; rate 0.100 kg/ha): 7 (7 - Good herbicidal effect)
MATIN rating ([1]; rate 0.400 kg/ha): 8 (8 - Approaching complete kill)
ABUTH rating ([2]; rate 0.025 kg/ha): 5 (5 - Definite injury)
ABUTH rating ([2]; rate 0.100 kg/ha): 6 (6 - Herbicidal effect)
ABUTH rating ([2]; rate 0.400 kg/ha): 6 (6 - Herbicidal effect)
LOLMU rating [3]: 8 (8 - Approaching complete kill)
ALOMY rating ([4]; rate 0.025 kg/ha): 4 (4 - Injury)
ALOMY rating ([4]; rate 0.100 kg/ha): 7 (7 - Good herbicidal effect)
ALOMY rating ([4]; rate 0.400 kg/ha): 8 (8 - Approaching complete kill)
GALAP rating ([5]; rate 0.025 kg/ha): 2 (2 - Slight effect)
GALAP rating ([5]; rate 0.100 kg/ha): 5 (5 - Definite injury)
GALAP rating ([5]; rate 0.400 kg/ha): 8 (8 - Approaching complete kill)
IPOHE rating ([6]; rate 0.025 kg/ha): 8 (8 - Approaching complete kill)
IPOHE rating ([6]; rate 0.100 kg/ha): 8 (8 - Approaching complete kill)
IPOHE rating ([6]; rate 0.400 kg/ha): 9 (9 - Complete kill)
SETVI rating ([7]; rate 0.025 kg/ha): 5 (5 - Definite injury)
SETVI rating ([7]; rate 0.100 kg/ha): 8 (8 - Approaching complete kill)
SETVI rating ([7]; rate 0.400 kg/ha): 8 (8 - Approaching complete kill)
ECHCG rating ([8]; rate 0.025 kg/ha): 6 (6 - Herbicidal effect)
ECHCG rating ([8]; rate 0.100 kg/ha): 9 (9 - Complete kill)
ECHCG rating ([8]; rate 0.400 kg/ha): 9 (9 - Complete kill)
MATIN rating ([9]; rate 0.025 kg/ha): 9 (9 - Complete kill)
MATIN rating ([9]; rate 0.100 kg/ha): 9 (9 - Complete kill)
MATIN rating ([9]; rate 0.400 kg/ha): 9 (9 - Complete kill)
ABUTH rating ([10]; rate 0.025 kg/ha): 8 (8 - Approaching complete kill)
ABUTH rating ([10]; rate 0.100 kg/ha): 9 (9 - Complete kill)
ABUTH rating ([10]; rate 0.400 kg/ha): 9 (9 - Complete kill)
ALOMY rating ([11]; rate 0.025 kg/ha): 7 (7 - Good herbicidal effect)
ALOMY rating ([11]; rate 0.100 kg/ha): 9 (9 - Complete kill)
ALOMY rating ([11]; rate 0.400 kg/ha): 9 (9 - Complete kill)
STEME rating ([12]; rate 0.025 kg/ha): 9 (9 - Complete kill)
STEME rating ([12]; rate 0.100 kg/ha): 9 (9 - Complete kill)
STEME rating ([12]; rate 0.400 kg/ha): 9 (9 - Complete kill)
GALAP rating ([13]; rate 0.025 kg/ha): 6 (6 - Herbicidal effect)
GALAP rating ([13]; rate 0.100 kg/ha): 8 (8 - Approaching complete kill)
GALAP rating ([13]; rate 0.400 kg/ha): 8 (8 - Approaching complete kill)
IPOHE rating ([14]; rate 0.025 kg/ha): 6 (6 - Herbicidal effect)
IPOHE rating ([14]; rate 0.100 kg/ha): 9 (9 - Complete kill)
IPOHE rating ([14]; rate 0.400 kg/ha): 9 (9 - Complete kill)
SETVI rating ([15]; rate 0.025 kg/ha): 9 (9 - Complete kill)
SETVI rating ([15]; rate 0.100 kg/ha): 9 (9 - Complete kill)
SETVI rating ([15]; rate 0.400 kg/ha): 9 (9 - Complete kill)
ECHCG rating ([16]; rate 0.025 kg/ha): 7 (7 - Good herbicidal effect)
ECHCG rating ([16]; rate 0.100 kg/ha): 9 (9 - Complete kill)
ECHCG rating ([16]; rate 0.400 kg/ha): 9 (9 - Complete kill)
weed control (in words) (eight weed species; [20]): complete control
ZEAMX rating (Zea mays (ZEAMX, maize); rate 0.025 kg/ha): 2 (2 - Slight effect)
ZEAMX rating (Zea mays (ZEAMX, maize); rate 0.100 kg/ha): 4 (4 - Injury)
ZEAMX rating (Zea mays (ZEAMX, maize); rate 0.400 kg/ha): 5 (5 - Definite injury)
TRZAW rating ([17]; rate 0.025 kg/ha): 1 (1 - Trace effect)
TRZAW rating ([17]; rate 0.100 kg/ha): 2 (2 - Slight effect)
TRZAW rating ([17]; rate 0.400 kg/ha): 3 (3 - Moderate effect)
GLXMA rating ([18]; rate 0.025 kg/ha): 2 (2 - Slight effect)
GLXMA rating ([18]; rate 0.100 kg/ha): 3 (3 - Moderate effect)
GLXMA rating ([18]; rate 0.400 kg/ha): 4 (4 - Injury)

Cc1cc(OCCCSC(F)(F)F)nc(Oc2cc(C(F)(F)F)nn2C)c1 [Example 4]
MATIN rating ([1]; rate 0.025 kg/ha): 4 (4 - Injury)
MATIN rating ([1]; rate 0.100 kg/ha): 7 (7 - Good herbicidal effect)
MATIN rating ([1]; rate 0.400 kg/ha): 8 (8 - Approaching complete kill)
ABUTH rating ([2]; rate 0.025 kg/ha): 5 (5 - Definite injury)
ABUTH rating ([2]; rate 0.100 kg/ha): 7 (7 - Good herbicidal effect)
ABUTH rating ([2]; rate 0.400 kg/ha): 8 (8 - Approaching complete kill)
LOLMU rating [3]: 8 (8 - Approaching complete kill)
ALOMY rating ([4]; rate 0.025 kg/ha): 6 (6 - Herbicidal effect)
ALOMY rating ([4]; rate 0.100 kg/ha): 8 (8 - Approaching complete kill)
ALOMY rating ([4]; rate 0.400 kg/ha): 8 (8 - Approaching complete kill)
STEME rating ([19]; rate 0.025 kg/ha): 5 (5 - Definite injury)
STEME rating ([19]; rate 0.100 kg/ha): 5 (5 - Definite injury)
STEME rating ([19]; rate 0.400 kg/ha): 8 (8 - Approaching complete kill)
GALAP rating ([5]; rate 0.025 kg/ha): 7 (7 - Good herbicidal effect)
GALAP rating ([5]; rate 0.100 kg/ha): 8 (8 - Approaching complete kill)
GALAP rating ([5]; rate 0.400 kg/ha): 9 (9 - Complete kill)
IPOHE rating ([6]; rate 0.025 kg/ha): 5 (5 - Definite injury)
IPOHE rating ([6]; rate 0.100 kg/ha): 7 (7 - Good herbicidal effect)
IPOHE rating ([6]; rate 0.400 kg/ha): 9 (9 - Complete kill)
SETVI rating ([7]; rate 0.025 kg/ha): 5 (5 - Definite injury)
SETVI rating ([7]; rate 0.100 kg/ha): 7 (7 - Good herbicidal effect)
SETVI rating ([7]; rate 0.400 kg/ha): 9 (9 - Complete kill)
ECHCG rating ([8]; rate 0.025 kg/ha): 8 (8 - Approaching complete kill)
ECHCG rating ([8]; rate 0.100 kg/ha): 8 (8 - Approaching complete kill)
ECHCG rating ([8]; rate 0.400 kg/ha): 9 (9 - Complete kill)
MATIN rating ([9]; rate 0.025 kg/ha): 8 (8 - Approaching complete kill)
MATIN rating ([9]; rate 0.100 kg/ha): 8 (8 - Approaching complete kill)
MATIN rating ([9]; rate 0.400 kg/ha): 8 (8 - Approaching complete kill)
ABUTH rating ([10]; rate 0.025 kg/ha): 3 (3 - Moderate effect)
ABUTH rating ([10]; rate 0.100 kg/ha): 7 (7 - Good herbicidal effect)
ABUTH rating ([10]; rate 0.400 kg/ha): 9 (9 - Complete kill)
ALOMY rating ([11]; rate 0.025 kg/ha): 5 (5 - Definite injury)
ALOMY rating ([11]; rate 0.100 kg/ha): 8 (8 - Approaching complete kill)
ALOMY rating ([11]; rate 0.400 kg/ha): 8 (8 - Approaching complete kill)
STEME rating ([12]; rate 0.025 kg/ha): 9 (9 - Complete kill)
STEME rating ([12]; rate 0.100 kg/ha): 9 (9 - Complete kill)
STEME rating ([12]; rate 0.400 kg/ha): 9 (9 - Complete kill)
GALAP rating ([13]; rate 0.025 kg/ha): 4 (4 - Injury)
GALAP rating ([13]; rate 0.100 kg/ha): 8 (8 - Approaching complete kill)
GALAP rating ([13]; rate 0.400 kg/ha): 8 (8 - Approaching complete kill)
IPOHE rating ([14]; rate 0.025 kg/ha): 6 (6 - Herbicidal effect)
IPOHE rating ([14]; rate 0.100 kg/ha): 9 (9 - Complete kill)
IPOHE rating ([14]; rate 0.400 kg/ha): 9 (9 - Complete kill)
SETVI rating ([15]; rate 0.025 kg/ha): 8 (8 - Approaching complete kill)
SETVI rating ([15]; rate 0.100 kg/ha): 9 (9 - Complete kill)
SETVI rating ([15]; rate 0.400 kg/ha): 9 (9 - Complete kill)
ECHCG rating ([16]; rate 0.025 kg/ha): 3 (3 - Moderate effect)
ECHCG rating ([16]; rate 0.100 kg/ha): 8 (8 - Approaching complete kill)
ECHCG rating ([16]; rate 0.400 kg/ha): 9 (9 - Complete kill)
weed control (in words) (eight weed species; [20]): high levels of activity
weed control (in words) (eight weed species; wheat selective dose of 0.4 kg/ha): complete weed control
ZEAMX rating (Zea mays (ZEAMX, maize); rate 0.025 kg/ha): 2 (2 - Slight effect)
ZEAMX rating (Zea mays (ZEAMX, maize); rate 0.100 kg/ha): 2 (2 - Slight effect)
ZEAMX rating (Zea mays (ZEAMX, maize); rate 0.400 kg/ha): 4 (4 - Injury)
TRZAW rating ([17]; rate 0.025 kg/ha): 0 (0 - No effect)
TRZAW rating ([17]; rate 0.100 kg/ha): 0 (0 - No effect)
TRZAW rating ([17]; rate 0.400 kg/ha): 2 (2 - Slight effect)
GLXMA rating ([18]; rate 0.025 kg/ha): 1 (1 - Trace effect)
GLXMA rating ([18]; rate 0.100 kg/ha): 2 (2 - Slight effect)
GLXMA rating ([18]; rate 0.400 kg/ha): 3 (3 - Moderate effect)
